Results published in US11485744B2, “High penetration prodrug compositions of antimicrobials and antimicrobial-related compounds” (priority 2009, dated 2022).
Structures can show the parent of a compound that is named as a salt.

Test: In vitro penetration across isolated human skin in modified Franz cells
Conditions: Table 1b; isolated human skin, Franz cells, 10% in 0.2 M phosphate buffer pH 7.4, n=5
Description: Penetration rates of HPPs and their parent drugs through human skin were measured in vitro by modified Franz cells. A Franz cell had two chambers, the top sample chamber and the bottom receiving chamber. The human skin tissue (360-400 μm thick) that separated the top and the receiving chambers was isolated from the anterior or posterior thigh areas.
A test compound (2 mL, 10% in 0.2 M phosphate buffer, pH 7.4) was added to the sample chamber of a Franz cell. The receiving chamber contained 10 ml of 0.2 M phosphate buffer which was stirred at 600 rpm. The amount of the tested compound penetrating the skin was determined by high-performance liquid chromatography (HPLC) method.

Structure (SMILES) | In vitro Penetration Rate (apparent flux), Parent compounds (beta-lactamases inhibitors) | In vitro Penetration Rate (apparent flux), HPPs of beta-lactamases inhibitors
O=C(NCP(=O)([O-])Oc1cccnc1)OCc1ccccc1.[Na+] [[(N-benzyloxycarbonylamino)methyl]-phosphonic acid mono-(3-pyridinyl) ester sodium salt, reference compound] | <0.001 mg/cm^2/h | –
CCN(CC)COP(=O)(CNC(=O)OCc1ccccc1)Oc1ccc([N+](=O)[O-])cc1.Cl (stereo not shown) [[(N-benzyloxycarbonylamino)methyl]-phosphonic acid (4-nitrophenyl)(N,N-diethylaminomethyl) ester•HCl salt] | – | 0.37 ± 0.03 mg/cm^2/h
Cl.O=C(NCP(=O)(OCCN1CCCCC1)Oc1cccnc1)OCc1ccccc1 (stereo not shown) [[(N-benzyloxycarbonylamino)methyl]-phosphonic acid (3-pyridinyl)(1-piperidineethyl) ester•HCl salt] | – | 0.25 ± 0.04 mg/cm^2/h
O=C(NCP(=O)([O-])Oc1ccc([N+](=O)[O-])cc1)OCc1ccccc1.[Na+] [[(N-benzyloxycarbonylamino)methyl]-phosphonic acid mono-(4-nitrophenyl) ester sodium salt, reference compound] | <0.001 mg/cm^2/h | –

Same assay, conditions: human, 10 %, pH 7.4

Structure (SMILES) | In vitro Penetration Rate (apparent flux), Parent compounds | In vitro Penetration Rate (apparent flux), Parent compounds (beta-lactamases inhibitors)
NCc1ccccc1CC(=O)N[C@@H]1C(=O)N2C(C(=O)O)=C(CSc3nnnn3CC(=O)O)CS[C@H]12 [Ceforanide, reference compound] | <0.001 mg/cm^2/h | –
C=CC1=C(C(=O)O)N2C(=O)[C@@H](NC(=O)/C(=N\OCC(=O)O)c3csc(N)n3)[C@H]2SC1 [Cefixime, reference compound] | <0.010 mg/cm^2/h | –
CO[C@@]1(NC(=O)Cc2cccs2)C(=O)N2C(C(=O)O)=C(COC(N)=O)CS[C@@H]21 [cefoxitin, reference compound] | <0.001 mg/cm^2/h | –
COCC1=C(C(=O)OC(C)OC(=O)OC(C)C)N2C(=O)[C@@H](NC(=O)/C(=N\OC)c3csc(N)n3)[C@H]2SC1 (stereo partly shown) [Cefpodoxime proxetil, reference compound] | <0.001 mg/cm^2/h | –
CO/N=C(\C(=O)N[C@@H]1C(=O)N2C(C(=O)O)=C(COC(N)=O)CS[C@H]12)c1ccco1 [Cefuroxime, reference compound] | <0.001 mg/cm^2/h | –
CC1(C)S[C@@H]2[C@H](NC(=O)[C@H](NC(=O)N3CCNC3=O)c3ccccc3)C(=O)N2[C@H]1C(=O)O [Azlocillin, reference compound] | <0.001 mg/cm^2/h | –
O=C(O)[C@H]1/C(=C/CO)O[C@@H]2CC(=O)N21 [clavulanic acid, (2R,5R,Z)-3-(2-hydroxyethylidene)-7-oxo-4-oxa-1-aza-bicyclo[3.2.0]heptane-2-carboxylic acid, reference compound] | – | <0.001 mg/cm^2/h
N[C@@H](C(=O)N[C@@H]1C(=O)N2C(C(=O)O)=C(Cl)CS[C@H]12)c1ccccc1 [Cefaclor, reference compound] | <0.016 mg/cm^2/h | –
C[C@]1(Cn2ccnn2)[C@H](C(=O)O)N2C(=O)C[C@H]2S1(=O)=O [tazobactam, [2S-(2alpha,3beta,5alpha)]-3-Methyl-7-oxo-3-(1H-1,2,3-triazol-1-ylmethyl)-4-thia-1-azabicyclo[3.2.0]heptane-2-carboxylic acid 4,4-dioxide sodium salt, reference compound] | – | <0.001 mg/cm^2/h
Cc1onc(-c2c(Cl)cccc2Cl)c1C(=O)N[C@@H]1C(=O)N2[C@@H]1SC(C)(C)[C@@H]2C(=O)O [Dicloxacillin, reference compound] | <0.001 mg/cm^2/h | –
CC1(C)S[C@@H]2[C@H](NC(=O)[C@H](NC(=O)N3CCN(S(C)(=O)=O)C3=O)c3ccccc3)C(=O)N2[C@H]1C(=O)O [Mezlocillin, reference compound] | <0.001 mg/cm^2/h | –

Same assay, conditions: pH 7.4

Structure (SMILES) | In vitro Penetration Rate (apparent flux), HPPs | In vitro Penetration Rate (apparent flux), HPPs of beta-lactamases inhibitors | In vitro Penetration Rate (apparent flux), HPPs of sulfonamides, sulfones, quinolones | In vitro Penetration Rate (apparent flux), Parent compounds
CCCN(CCC)CCOC(=O)C1N2C(=O)C(NC(=O)c3c(OC)cccc3OC)C2SC1(C)C.Cl (stereo not shown) [6-(2,6-dimethoxybenzamido)penicillinic acid 2-dipropylaminoethyl ester hydrochloride] | 0.52 ± 0.07 mg/cm^2/h | – | – | –
Cl.O=C(OCCC1CCNCC1)[C@H]1/C(=C/CO)O[C@@H]2CC(=O)N21 [clavulanic acid-PEE, (2R,5R,Z)-3-(2-hydroxyethylidene)-7-oxo-4-oxa-1-aza-bicyclo[3.2.0]heptane-2-carboxylic acid 4-piperidineethyl ester•HCl salt] | – | 0.29 ± 0.02 mg/cm^2/h | – | –
CN(C)CCCC(=O)Nc1ccc(S(N)(=O)=O)cc1.Cl [DMAB-sulfanilamide, 4-(4-dimethylaminobutyryl)amidobenzenesulfonamide•HCl salt] | – | – | 0.18 ± 0.03 mg/cm^2/h | –
CCOC(=O)C1N2C(=O)C(NC(=O)[C@H](N)c3ccccc3)C2SC1(C)C.Cl (stereo partly drawn) [6-[D(−)-α-aminophenylacetamidopenicillinic acid ethyl ester hydrochloride] | 0.82 ± 0.06 mg/cm^2/h | – | – | –
CC1(C)SC2C(NC(=O)C(NC(=O)N3CCN(S(C)(=O)=O)C3=O)c3ccccc3)C(=O)N2C1C(=O)OCCN1CCCC1.Cl (stereo not drawn) [6R-[2-[3-(methylsulfonyl)-2-oxo-1-imidazolidinecarboxamido]-2-phenylacetamido]penicillinic acid 1-pyrrolidineethyl ester hydrochloride] | 0.79 ± 0.07 mg/cm^2/h | – | – | –
C[C@]1(Cn2ccnn2)[C@H](C(=O)OCCN2CCCCC2)N2C(=O)C[C@H]2S1(=O)=O.Cl [tazobactam-PEE, [2S-(2alpha,3beta,5alpha)]-3-Methyl-7-oxo-3-(1H-1,2,3-triazol-1-ylmethyl)-4-thia-1-azabicyclo[3.2.0]heptane-2-carboxylic acid 4,4-dioxide 1-piperidineethyl ester•HCl salt] | – | 0.32 ± 0.03 mg/cm^2/h | – | –
C=CCSCC(=O)NC1C(=O)N2C1SC(C)(C)C2C(=O)OCCN(C)C.Cl (stereo not shown) [Allylmercaptomethylpenicillinic acid 2-dimethylaminoethyl ester hydrochloride] | 0.65 ± 0.05 mg/cm^2/h | – | – | –
C=CCSCC(=O)N[C@@H]1C(=O)N2[C@@H]1SC(C)(C)[C@@H]2C(=O)O [penicillin O, reference compound] | – | – | – | <0.001 mg/cm^2/h
Cc1onc(-c2c(Cl)cccc2Cl)c1C(=O)NC1C(=O)N2C1SC(C)(C)C2C(=O)OCCN1CCCCC1.Cl (stereo not shown) [6-[3-(2,6-dichlorophenyl)-5-methyl-4-isoxazolecarboxamido]penicillinic acid 1-piperidineethyl ester hydrochloride] | 0.58 ± 0.05 mg/cm^2/h | – | – | –
CCN(CC)CCCOC(=O)C1=CC(=NNc2ccc(S(=O)(=O)Nc3ccccn3)cc2)C=CC1=O.Cl [sulfasalazine-DEPE, 6-oxo-3-(2-[4-(N-pyridin-2-ylsulfamoyl)phenyl]hydrazono)cyclohexa-1,4-dienecarboxylic acid N,N-diethyaminopropyl ester•HCl salt] | – | – | 0.21 ± 0.03 mg/cm^2/h | –
